In patent publication US20240239854A1, “ANTIMICROBIAL PEPTIDES AND MODIFICATIONS THEREOF” (Donald Danforth Plant Science Center, priority 2022, published 2024):
Values after ≈ are worked out from the molar mass of the structure shown. Read-outs that look alike come from different tables or passages of the source. Positions of bridges follow the written chain, without caps; N, C: chain ends. Non-standard residues stand in square brackets, D forms with d. Residues, ends and D or L forms follow the SMILES beside them. No end group written: not given here. Dab = NCC[C@H](N)C(=O)O

Legend:
B. cinerea [1] = assay: Semi-in planta drop inoculation assay on detached leaves of N. benthamiana, gray mold (Example 4); format: in vivo; conditions: for Reduction of gray mold symptoms at 3 and 6 μM / Reduction of gray mold symptoms at 1.5 μM: drop inoculation assay; for Reduction of gray mold symptoms at 3 and 6 μM: peptide 3 μM and 6 μM; for Reduction of gray mold symptoms at 1.5 μM: peptide 1.5 μM
Botrytis cinerea T-4 = conditions: for MIC (μM) SFM: Table 18, SFM; for MIC (μM) (SFM + 2 mM CaCl2): Table 18, SFM + 2 mM CaCl2; for MIC (μM) (SFM + 100 mM KCl): Table 18, SFM + 100 mM KCl; for MIC (μM) (SFM + 100 mM NaCl): Table 18, SFM + 100 mM NaCl
F. oxysporum = assay: Antifungal MIC assay in SFM culture media (Example 1); format: cell-based; conditions: Table 2; SFM culture media
B. cinerea [2] = test system: B. cinerea
Alternaria alternata = assay: 96-well plate antifungal MIC, resazurin cell viability (Example 4); format: cell-based; conditions: Table 19; unit not given, peptide concentrations in μM
[3] = test system: Colletotrichum gloeosporioides; assay: as above; format: cell-based; conditions: Table 19; unit not given, peptide concentrations in μM
Cercospora sojina = assay: as above; format: cell-based; conditions: Table 19; unit not given, peptide concentrations in μM
[4] = Table 4, B. cinerea, SFM + 2 mM CaCl2
[5] = Table 10, SFM + 2 mM CaCl2, values repeat Table 4 (B. cinerea)

CC[C@H](C)[C@H](NC(=O)[C@H](CCCNC(=N)N)NC(=O)[C@H](CS)NC(=O)[C@H](CCCNC(=N)N)NC(=O)CNC(=O)[C@@H](N)CO)C(=O)N[C@@H](CC(C)C)C(=O)N[C@@H](Cc1ccccc1)C(=O)N[C@@H](CCCNC(=N)N)C(=O)N[C@@H](CS)C(=O)N[C@@H](Cc1ccccc1)C(=O)N[C@@H](CS)C(=O)N[C@H](C(=O)N[C@@H](CCCCN)C(=O)N[C@@H](CC(N)=O)C(=O)N[C@@H](CS)C(N)=O)[C@@H](C)O [GMA1C_V1] (H-SGRCRILFRCFCTKNC-NH2; N-terminus assumed)
Reduction of gray mold symptoms at 3 and 6 μM (B. cinerea [1]): failed to reduce disease symptoms

CC[C@H](C)[C@@H]1NC(=O)[C@H](CCCNC(=N)N)NC(=O)[C@@H](NC(=O)[C@H](CCCNC(=N)N)NC(=O)CNC(=O)[C@@H](N)CO)CSSC[C@@H](C(N)=O)NC(=O)[C@H](CC(N)=O)NC(=O)[C@H](CCCCN)NC(=O)[C@H]([C@@H](C)O)NC(=O)[C@H](Cc2c[nH]c3ccccc23)NC(=O)[C@H](Cc2ccccc2)NC(=O)[C@H](Cc2c[nH]c3ccccc23)NC(=O)[C@H](CCCNC(=N)N)NC(=O)[C@H](Cc2ccccc2)NC(=O)[C@H](CC(C)C)NC1=O [GMA1C_V2] (H-SGRCRILFRWFWTKNC-NH2; disulfide 4-16; N-terminus assumed)
MIC (μM) SFM (Botrytis cinerea T-4): 1.5 to 3 µM | MIC (μM) (SFM + 2 mM CaCl2) (Botrytis cinerea T-4): 3 µM | MIC (μM) (SFM + 100 mM KCl) (Botrytis cinerea T-4): >12 µM | MIC (μM) (SFM + 100 mM NaCl) (Botrytis cinerea T-4): 3 µM | Reduction of gray mold symptoms at 1.5 μM (B. cinerea [1]): more effective than GMA1C_V1 | Reduction of gray mold symptoms at 3 and 6 μM (B. cinerea [1]): completely abrogated gray mold symptoms

C[C@@H](O)[C@H](NC(=O)[C@H](CS)NC(=O)[C@H](Cc1ccccc1)NC(=O)[C@H](CS)NC(=O)[C@H](CCCNC(=N)N)NC(=O)[C@H](CCCNC(=N)N)NC(=O)[C@H](CCCNC(=N)N)NC(=O)[C@H](Cc1ccccc1)NC(=O)CNC(=O)[C@H](CCCNC(=N)N)NC(=O)[C@H](CS)NC(=O)[C@H](CCCNC(=N)N)NC(=O)CN)C(=O)N[C@H](C(=O)N[C@@H](Cc1c[nH]cn1)C(=O)N[C@@H](CS)C(N)=O)[C@@H](C)O [GMA4AC] (H-GRCRGFRRRCFCTTHC-NH2; N-terminus and C-terminus assumed)
MIC (μM) Fusarium graminearum (F. graminearum): 6 µM (≈ 11.8 µg/mL)

C[C@@H](O)[C@H](NC(=O)[C@H](CS)NC(=O)[C@H](Cc1ccccc1)NC(=O)[C@H](CS)NC(=O)[C@H](CCCNC(=N)N)NC(=O)[C@H](CCCNC(=N)N)NC(=O)[C@H](CCCNC(=N)N)NC(=O)[C@H](Cc1ccccc1)NC(=O)CNC(=O)[C@H](CCCNC(=N)N)NC(=O)[C@H](CS)NC(=O)[C@H](CCCNC(=N)N)NC(=O)CNC(=O)CN)C(=O)N[C@H](C(=O)N[C@@H](Cc1c[nH]cn1)C(=O)N[C@@H](CS)C(N)=O)[C@@H](C)O [GMA4C_AC] (H-GGRCRGFRRRCFCTTHC-NH2; N-terminus assumed)
F. graminearum MIC (F. graminearum): 3 µM | MIC (μM) Fusarium graminearum (F. graminearum): 3 µM (≈ 6.05 µg/mL) | MIC Values (μM) against F. graminearum (F. graminearum): 6 µM (≈ 12.1 µg/mL) | F. oxysporum MIC (F. oxysporum): 6 μuM | Retention of antifungal activity in presence of cations (B. cinerea [2]; B. cinerea, 100 mM NaCl or 100 mM KCl): retain their antifungal activity | SFM + 2 mM CaCl2 MIC (B. cinerea [2]; [4]): >6 (a few μM | SFM + 2 mM CaCl2 MIC (B. cinerea [2]; [5]): >6 (a μM

NCC[C@H](NC(=O)CNC(=O)[C@@H](N)Cc1ccccc1)C(=O)N[C@@H](CS)C(=O)N[C@@H](CCN)C(=O)NCC(=O)N[C@@H](Cc1ccccc1)C(=O)N[C@@H](CCN)C(=O)N[C@@H](CCN)C(=O)N[C@@H](CCN)C(=O)N[C@@H](CS)C(=O)N[C@@H](Cc1ccccc1)C(=O)N[C@@H](CS)C(=O)N[C@@H](Cc1c[nH]c2ccccc12)C(=O)N[C@@H](CCN)C(=O)N[C@@H](Cc1c[nH]c2ccccc12)C(=O)N[C@@H](CS)C(=O)O [GMA4C_V5, FG(Dab)C(Dab)GF(Dab)(Dab)(Dab)CFCW(Dab)WC] (H-FG[Dab]C[Dab]GF[Dab][Dab][Dab]CFCW[Dab]WC-OH; N-terminus assumed)
SFM + 2 mM CaCl2 MIC (B. cinerea [2]; [4]): >6 (very μM | SFM + 2 mM CaCl2 MIC (B. cinerea [2]; [5]): >6 (very μM

CC[C@H](C)[C@H](NC(=O)[C@H](CCCNC(=N)N)NC(=O)[C@@H](NC(=O)[C@H](Cc1c[nH]c2ccccc12)NC(=O)[C@H](Cc1ccccc1)NC(=O)[C@H](Cc1c[nH]c2ccccc12)NC(=O)[C@H](CCCNC(=N)N)NC(=O)[C@H](CCCNC(=N)N)NC(=O)[C@H](CCCNC(=N)N)NC(=O)[C@H](Cc1ccccc1)NC(=O)CNC(=O)[C@H](CCCCN)NC(=O)[C@H](CS)NC(=O)[C@H](CCCNC(=N)N)NC(=O)CNC(=O)CN)[C@@H](C)O)C(=O)N[C@@H](CS)C(N)=O [GMA4C_V6A] (H-GGRCKGFRRRWFWTRIC-NH2; N-terminus assumed)
B. cinerea MIC (B. cinerea [2]): 0.75 µM | MIC (μM) Botrytis cinerea (B. cinerea [2]): 0.75 µM (≈ 1.64 µg/mL) | MIC Values (μM) against B. cinerea (B. cinerea [2]): 0.75 µM (≈ 1.64 µg/mL) | SFM + 2 mM CaCl2 MIC (B. cinerea [2]): 3 to 6 µM | SFM + 100 mM KCl MIC (B. cinerea [2]): 1.5 to 3 µM | SFM + 100 mM NaCl MIC (B. cinerea [2]): 0.75 to 1.5 µM | SFM MIC (B. cinerea [2]): 1.5 µM | Antifungal activity relative to the wild-type GMA4C_AC control (B. cinerea [2]; in vitro, low cationic conditions, B. cinerea): four-fold increase

C[C@H](NC(=O)CN)C(=O)N[C@@H](CS)C(=O)N[C@@H](Cc1c[nH]cn1)C(=O)N[C@@H](CCCNC(=N)N)C(=O)N[C@@H](CCC(N)=O)C(=O)NCC(=O)N[C@@H](Cc1ccccc1)C(=O)NCC(=O)N[C@@H](Cc1ccccc1)C(=O)N[C@@H](C)C(=O)N[C@@H](CS)C(=O)N[C@@H](Cc1ccccc1)C(=O)N[C@@H](CS)C(=O)N[C@@H](Cc1ccc(O)cc1)C(=O)N[C@@H](CCCCN)C(=O)N[C@@H](CCCCN)C(=O)N[C@@H](CS)C(N)=O [GMA5CA_WT] (H-GACHRQGFGFACFCYKKC-NH2)
In vitro antifungal activity (MIC) Alternaria alternata (Alternaria alternata): 6 | In vitro antifungal activity (MIC) Colletotrichum gloeosporioides [3]: >12 | In vitro antifungal activity (MIC) Cercospora sojina (Cercospora sojina): 12

CC(C)C[C@@H]1NC(=O)[C@@H](NC(=O)[C@H](C)NC(=O)CN)CSSC[C@@H](C(=O)N[C@@H](Cc2ccc(O)cc2)C(N)=O)NC(=O)[C@H](Cc2c[nH]cn2)NC(=O)[C@H](CCCNC(=N)N)NC(=O)[C@H](Cc2ccc(O)cc2)NC(=O)[C@H](Cc2ccc(O)cc2)NC(=O)[C@H](Cc2c[nH]c3ccccc23)NC(=O)[C@H](Cc2ccccc2)NC(=O)[C@H](Cc2c[nH]c3ccccc23)NC(=O)CNC(=O)[C@H](Cc2ccc(O)cc2)NC(=O)[C@H](Cc2c[nH]cn2)NC(=O)[C@H](CCCCN)NC(=O)[C@H](CO)NC(=O)[C@H](Cc2c[nH]cn2)NC(=O)[C@H](CCCNC(=N)N)NC(=O)[C@H](CC(N)=O)NC(=O)[C@H](CCCCN)NC1=O [GMAOe1C_V3] (H-GACLKNRHSKHYGWFWYYRHCY-NH2; disulfide 3-21; N-terminus assumed)
MIC (μM) SFM (Botrytis cinerea T-4): 1.5 µM (≈ 4.31 µg/mL) | MIC (μM) (SFM + 2 mM CaCl2) (Botrytis cinerea T-4): 3 to 6 µM | MIC (μM) (SFM + 100 mM KCl) (Botrytis cinerea T-4): 6 to 12 µM | MIC (μM) (SFM + 100 mM NaCl) (Botrytis cinerea T-4): 2 to 3 µM | Reduction of gray mold symptoms at 1.5 μM (B. cinerea [1]): more effective than GMAOe1C_V4 or GMAOe1C_WT

CC(C)C[C@@H]1NC(=O)[C@@H](NC(=O)[C@H](C)NC(=O)CN)CSSC[C@@H](C(=O)N[C@@H](Cc2ccc(O)cc2)C(N)=O)NC(=O)[C@H](Cc2c[nH]cn2)NC(=O)[C@H](CCCNC(=N)N)NC(=O)[C@H](Cc2ccc(O)cc2)NC(=O)[C@H](Cc2ccc(O)cc2)NC(=O)[C@H](Cc2c[nH]c3ccccc23)NC(=O)[C@H](Cc2ccccc2)NC(=O)[C@H](Cc2ccccc2)NC(=O)CNC(=O)[C@H](Cc2ccc(O)cc2)NC(=O)[C@H](Cc2c[nH]cn2)NC(=O)[C@H](CCCCN)NC(=O)[C@H](CO)NC(=O)[C@H](Cc2c[nH]cn2)NC(=O)[C@H](CCCNC(=N)N)NC(=O)[C@H](CC(N)=O)NC(=O)[C@H](CCCCN)NC1=O [GMAOe1C_V4] (H-GACLKNRHSKHYGFFWYYRHCY-NH2; disulfide 3-21; N-terminus assumed)
MIC (μM) SFM (Botrytis cinerea T-4): 1.5 µM (≈ 4.25 µg/mL) | MIC (μM) (SFM + 2 mM CaCl2) (Botrytis cinerea T-4): 6 to 12 µM | MIC (μM) (SFM + 100 mM KCl) (Botrytis cinerea T-4): 6 to 12 µM | MIC (μM) (SFM + 100 mM NaCl) (Botrytis cinerea T-4): 6 µM

CC(C)C[C@H](NC(=O)[C@H](CS)NC(=O)[C@H](C)NC(=O)CN)C(=O)N[C@@H](CCCCN)C(=O)N[C@@H](CC(N)=O)C(=O)N[C@@H](CCCNC(=N)N)C(=O)N[C@@H](Cc1c[nH]cn1)C(=O)N[C@@H](CO)C(=O)N[C@@H](CCCCN)C(=O)N[C@@H](Cc1c[nH]cn1)C(=O)N[C@@H](Cc1ccc(O)cc1)C(=O)NCC(=O)N[C@@H](CS)C(=O)N[C@@H](Cc1ccc(O)cc1)C(=O)N[C@@H](CS)C(=O)N[C@@H](Cc1ccc(O)cc1)C(=O)N[C@@H](Cc1ccc(O)cc1)C(=O)N[C@@H](CCCNC(=N)N)C(=O)N[C@@H](Cc1c[nH]cn1)C(=O)N[C@@H](CS)C(=O)N[C@@H](Cc1ccc(O)cc1)C(N)=O [GMAOe1C_WT] (H-GACLKNRHSKHYGCYCYYRHCY-NH2; N-terminus assumed)
Reduction of gray mold disease symptoms (lesion sizes) (B. cinerea [1]; detached N. benthamiana leaves, peptide 1.5, 3 and 6 μM, 48 h after inoculation): only effective at 6 μM

GRCRGFRRRCFCTTHC-NH2 (cysteine pairing not given here) [GMA4AC]
In vitro antifungal activity (MIC) Alternaria alternata (Alternaria alternata): >12 | In vitro antifungal activity (MIC) Colletotrichum gloeosporioides [3]: >12 | In vitro antifungal activity (MIC) Cercospora sojina (Cercospora sojina): >12
